Data from PMC5791972 (PLoS ONE, 2018).
Like-named read-outs stand apart in the source and are kept apart here.

Key:
[1] = Brain homogenate assay (unbound fraction in brain); format: in vitro ADME; details: rat
Protocol: Frozen rat brains were homogenized in PBS buffer (dilution factor D = 4). The homogenate was spiked with test compounds (1 μM final concentration, final concentration of DMSO was 0.1%) and subsequently dialyzed against PBS buffer for 8 hrs at 37°C in rapid equilibrium dialysis cells (RED-device, Pierce). At the end of the dialysis period, the dialysate was transferred into reaction tubes and mixed with an analytical internal standard. Tissue homogenate was added to buffer samples and buffer was added to tissue samples to ensure identical matrix composition for bioanalytical measurement. After protein precipitation using acetonitrile, samples were measured by LC-MS/MS. The free fraction was calculated as fu,app = (CPBS/Chomogenate). Since the brains were homogenized in the buffer, the observed free fraction values (fu,app) were extrapolated to the fractions unbound in the brain (fu*) based on the dilution (D) using the following formula: fu*=(1/D)/((1/fu,app−1)+1/D).

[2] = biological target: glycine (strychnine-insensitive) (Rattus norvegicus, UniProt P35439); format: binding
MCH1 (h) = biological target: T1, MCH1 (h) (Homo sapiens, UniProt Q99705); format: binding; details: 1.0E-06 M
T1 construct: host or cells: CHO cells

PPARγ (h) = biological target: T2, PPARγ (h) (Homo sapiens, UniProt P37231); format: binding
T2 construct: Cerep; host or cells: E. coli
T2 sequence (P37231 1-505): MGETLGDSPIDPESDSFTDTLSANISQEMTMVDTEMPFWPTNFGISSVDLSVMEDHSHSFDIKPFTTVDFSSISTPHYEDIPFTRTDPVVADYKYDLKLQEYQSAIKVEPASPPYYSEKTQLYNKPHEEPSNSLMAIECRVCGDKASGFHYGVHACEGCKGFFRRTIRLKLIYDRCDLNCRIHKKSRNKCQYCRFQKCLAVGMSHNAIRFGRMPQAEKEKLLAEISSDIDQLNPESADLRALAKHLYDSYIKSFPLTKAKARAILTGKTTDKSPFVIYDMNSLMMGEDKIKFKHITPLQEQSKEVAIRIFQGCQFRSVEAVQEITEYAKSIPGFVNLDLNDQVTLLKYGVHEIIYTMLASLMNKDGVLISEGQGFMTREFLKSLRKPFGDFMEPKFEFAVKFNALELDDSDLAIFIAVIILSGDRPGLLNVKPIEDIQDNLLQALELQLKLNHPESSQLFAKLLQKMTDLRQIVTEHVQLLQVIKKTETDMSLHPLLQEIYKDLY

5-HT2C (h) = biological target: T3, 5-HT2C (h) (Homo sapiens, UniProt P28335); format: binding; details: 1.0E-06 M
T3 construct: host or cells: HEK-293 cells
T3 sequence (P28335 33-458): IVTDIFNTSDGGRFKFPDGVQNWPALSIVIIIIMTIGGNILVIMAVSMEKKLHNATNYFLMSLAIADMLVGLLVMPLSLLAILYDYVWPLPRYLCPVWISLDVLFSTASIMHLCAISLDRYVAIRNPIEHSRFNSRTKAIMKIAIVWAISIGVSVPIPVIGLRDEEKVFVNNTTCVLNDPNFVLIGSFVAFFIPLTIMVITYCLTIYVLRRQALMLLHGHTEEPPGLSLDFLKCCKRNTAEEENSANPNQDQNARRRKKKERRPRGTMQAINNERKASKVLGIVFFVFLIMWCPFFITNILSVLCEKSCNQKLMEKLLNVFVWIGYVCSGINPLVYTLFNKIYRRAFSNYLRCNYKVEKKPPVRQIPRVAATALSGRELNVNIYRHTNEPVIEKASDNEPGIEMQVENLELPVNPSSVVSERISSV

SKCa channel = format: binding, rat; details: 1.0E-06 M
Lyn A kinase (h) = Lyn A kinase (h) (Homo sapiens, UniProt P07948); experiment: biochemical; details: 1.0E-06 M
M2 (h) = biological target: T4, M2 (h) (Homo sapiens, UniProt P08172); experiment: biochemical
T4 sequence (P08172 1-466): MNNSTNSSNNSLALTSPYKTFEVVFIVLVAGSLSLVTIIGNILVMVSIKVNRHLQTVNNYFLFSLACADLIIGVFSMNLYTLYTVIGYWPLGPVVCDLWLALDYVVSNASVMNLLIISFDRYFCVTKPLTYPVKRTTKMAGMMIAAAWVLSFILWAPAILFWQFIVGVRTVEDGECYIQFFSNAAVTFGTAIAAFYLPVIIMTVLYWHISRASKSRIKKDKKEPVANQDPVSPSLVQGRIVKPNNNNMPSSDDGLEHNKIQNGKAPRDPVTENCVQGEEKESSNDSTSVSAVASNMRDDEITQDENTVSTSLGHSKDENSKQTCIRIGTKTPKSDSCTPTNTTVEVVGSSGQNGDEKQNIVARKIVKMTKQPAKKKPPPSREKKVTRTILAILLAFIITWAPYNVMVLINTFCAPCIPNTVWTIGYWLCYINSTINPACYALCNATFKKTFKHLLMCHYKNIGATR

M3 (h) = M3 (h) (Homo sapiens, UniProt P20309); experiment: biochemical
Sequence of M3 (h) (P20309 whole entry): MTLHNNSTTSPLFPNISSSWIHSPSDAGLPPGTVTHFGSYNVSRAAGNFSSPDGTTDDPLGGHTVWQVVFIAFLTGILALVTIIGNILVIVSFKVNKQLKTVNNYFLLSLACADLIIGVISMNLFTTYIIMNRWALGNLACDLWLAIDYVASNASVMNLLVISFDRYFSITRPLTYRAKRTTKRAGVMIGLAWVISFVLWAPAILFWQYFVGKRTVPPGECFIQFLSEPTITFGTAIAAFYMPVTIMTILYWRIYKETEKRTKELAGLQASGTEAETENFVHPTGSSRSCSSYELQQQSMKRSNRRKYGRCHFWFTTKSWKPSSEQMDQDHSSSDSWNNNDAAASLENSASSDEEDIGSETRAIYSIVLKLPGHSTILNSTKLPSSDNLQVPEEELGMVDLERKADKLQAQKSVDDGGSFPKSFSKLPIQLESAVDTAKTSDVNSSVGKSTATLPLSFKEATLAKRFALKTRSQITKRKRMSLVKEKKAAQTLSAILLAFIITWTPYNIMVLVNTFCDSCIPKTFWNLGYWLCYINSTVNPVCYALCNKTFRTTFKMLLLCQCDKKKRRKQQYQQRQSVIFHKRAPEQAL

T1 sequence (Q99705 whole entry): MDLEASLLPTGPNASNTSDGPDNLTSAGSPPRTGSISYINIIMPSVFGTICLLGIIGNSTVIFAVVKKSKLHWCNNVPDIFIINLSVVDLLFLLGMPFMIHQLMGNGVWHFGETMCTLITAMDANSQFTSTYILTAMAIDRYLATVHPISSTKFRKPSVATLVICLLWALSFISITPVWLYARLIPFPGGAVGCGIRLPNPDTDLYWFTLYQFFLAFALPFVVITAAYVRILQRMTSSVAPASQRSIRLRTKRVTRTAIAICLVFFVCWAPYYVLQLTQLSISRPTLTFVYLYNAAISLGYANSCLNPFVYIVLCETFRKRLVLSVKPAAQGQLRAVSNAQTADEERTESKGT
Sequence of Lyn A kinase (h) (P07948 whole entry): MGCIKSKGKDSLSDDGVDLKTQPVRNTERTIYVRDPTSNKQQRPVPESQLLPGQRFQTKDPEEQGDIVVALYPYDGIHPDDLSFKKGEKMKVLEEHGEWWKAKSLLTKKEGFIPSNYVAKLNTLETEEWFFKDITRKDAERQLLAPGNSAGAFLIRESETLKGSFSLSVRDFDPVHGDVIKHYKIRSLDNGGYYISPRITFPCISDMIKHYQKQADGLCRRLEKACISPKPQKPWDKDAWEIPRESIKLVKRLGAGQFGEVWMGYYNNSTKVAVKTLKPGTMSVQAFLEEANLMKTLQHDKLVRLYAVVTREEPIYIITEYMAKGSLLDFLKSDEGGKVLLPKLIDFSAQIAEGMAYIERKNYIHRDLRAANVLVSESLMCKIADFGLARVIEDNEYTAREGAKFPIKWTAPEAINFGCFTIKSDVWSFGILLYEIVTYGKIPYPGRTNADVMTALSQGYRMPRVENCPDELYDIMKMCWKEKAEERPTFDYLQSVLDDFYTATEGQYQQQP

For `Cn1c(=O)n(CCCO)c(=O)c2c1nc(Oc1cccc(Cl)c1)n2Cc1ccc(Cl)cc1` [HC-070], the nonspecific tissue binding ([1]; 8 h, 1 μM) was > 99% and the fraction unbound at 8 h, 1 μM ([1]; brain homogenate) was 0.0028 ± 0.0002.

Work on `Cn1c(=O)n(CCCO)c(=O)c2c1nc(Oc1cccc(OC(F)(F)F)c1)n2Cc1ccc(Cl)cc1` [HC-608] yielded an inhibition at 1 µM ([2]; read-out: % Inhibition 1st) of 1.7%, an inhibition at 1 µM ([2]; read-out: % Inhibition 2nd) of 3.1% and an inhibition at 1 µM ([2]; read-out: % Inhibition Mean) of 2.4%. The inhibition at 1 µM (MCH1 (h); read-out: % Inhibition 1st) was 7.9%, the inhibition at 1 µM (MCH1 (h); read-out: % Inhibition 2nd) was -27.2% and the inhibition at 1 µM (MCH1 (h); read-out: % Inhibition Mean) was -9.6%. For the same compound, the inhibition at 1 µM (PPARγ (h); 1.0E-06 M, read-out: % Inhibition 1st) was 6.7%, the inhibition at 1 µM (PPARγ (h); 1.0E-06 M, read-out: % Inhibition 2nd) was 16.2% and the inhibition at 1 µM (PPARγ (h); read-out: % Inhibition Mean) was 11.5%. It also gave an inhibition at 1 µM (5-HT2C (h); read-out: % Inhibition 1st) of 12.1%, an inhibition at 1 µM (5-HT2C (h); read-out: % Inhibition 2nd) of 12.6% and an inhibition at 1 µM (5-HT2C (h); read-out: % Inhibition Mean) of 12.3%. The “% Inhibition 1st” value (SKCa channel) was -2.5%, the “% Inhibition 2nd” value (SKCa channel) was -4.7% and the “% Inhibition Mean” value (SKCa channel) was -3.6%. The inhibition at 1 µM (Lyn A kinase (h); read-out: % Inhibition 1st) was 13.7%, the inhibition at 1 µM (Lyn A kinase (h); read-out: % Inhibition 2nd) was 5.5% and the inhibition at 1 µM (Lyn A kinase (h); read-out: % Inhibition Mean) was 9.6%. It also gave an inhibition at 1 µM (M2 (h); read-out: % Inhibition 1st) of -15.9%, an inhibition at 1 µM (M2 (h); read-out: % Inhibition 2nd) of -14.2% and an inhibition at 1 µM (M2 (h); read-out: % Inhibition Mean) of -15%. The inhibition at 1 µM (M3 (h); read-out: % Inhibition 1st) was -9%, the inhibition at 1 µM (M3 (h); read-out: % Inhibition 2nd) was -7.5% and the inhibition at 1 µM (M3 (h); read-out: % Inhibition Mean) was -8.2%.
